Entries after “also recorded” stand apart in the source; their conditions may differ. Non-standard residues stand in square brackets, D forms with d.
Tests used:
[1] = system: leukemic cells isolated from hMRP8-PML/RARα transgenic mice; assay: Acute promyelocytic leukemia (APL) mouse model, survival; format: in vivo
Description: FIG. 9: Antp-AAC-11-LZ (363-399) peptide treatment of leukemic mice protects against disease progression. Mice were challenged with 10^4 leukemic cells isolated from hMRP8-PML/RARα transgenic mice, allowed to engraft for 10 d, and were then injected intraperitonaly each day for 7 consecutive days with Antp-AAC-11-LZ (363-399) peptide (1.8 mg/kg) or vehicle (normal saline solution), or subcutaneously implanted with a 21-d release pellet containing 5 mg ATRA (n=6 for each treatment). Mice were monitored for survival.
We use an established in vivo APL model based on syngenic grafts of leukemic blasts from hMRP8-PML/RARα transgenic mice, as described by Brown et al. (Brown et al., 1997). This model mimics human APL, both in its biological characteristics and its response to conventional therapeutic drugs such as all-trans retinoic acid (ATRA) and 100% of the mice die of the disease (Brown et al., 1997; Kogan et al., 2000; Lallemand-Breitenbach et al., 1999). […] leukemic cells isolated from bone marrow, spleen, or lymph nodes of leukemic hMRP8-PML/RARα transgenic mice (Brown et al., 1997) were injected into the tail vein of 6-7 week old syngeneic FVB/N mice. Establishment of leukemia was assessed by the appearance of high leukocyte and low platelet counts at around day 8 (Brown et al., 1997). Ten days after transplantation, mice implanted with leukemic cells were randomly assigned to either type of treatment (n=6). Antp-AAC-11-LZ (363-399) peptide (1.8 mg/kg) or vehicle (normal saline solution) was injected intraperitonaly each day for 7 consecutive days. Retinoic acid was administrated by subcutaneous implantation of a 21-d release pellet containing 5 mg ATRA (Innovative Research of America). Mice were then monitored for survival.

A549 cells = assay: Cell viability (MTT) of A549 cells under low serum / serum deprivation; format: cell-based; conditions: for induction of cell death of A549 cells: 10 μM, serum deprivation, FIG. 1C; for induction of cell death of A549 cells / cytotoxicity (decrease of A549 viability) relative to comparison peptide, dose-response: 24 hours; for cytotoxicity (decrease of A549 viability) relative to comparison peptide, dose-response: various concentrations, low-serum conditions, FIG. 2A / 5A; for cellular viability: 2 µM
Description: (A) Karpas 1106, SU-DHL-5, SeAx and HUT-78 cells were plated at a densities of 6×10^3 in 96 well plates (100 μL total volume per well) and treated for 24 hours in a 37° C. incubator (5% CO2) with increasing concentrations of the Antp-AAC-11-LZ (363-399). 20 μL MTS reagent was then added to each well and plates were incubated for an additional 4 hours. Absorbance was measured at 490 nm using a 96-well plate reader. The extent to which the Antp-AAC-11-LZ (363-399) peptide inhibited cell proliferation was calculated as a percentage of the absorbance in each well containing the Antp-AAC-11-LZ (363-399) peptide relative to wells containing no peptide (negative control). Each bar represents the mean±s.d. from at least three independent experiments. (B) Indicated cells were plated at a densities of 4.5×10^3 in 96 well plates (100 μL total volume per well) and allowed to attach overnight in a 37° C. incubator (5% CO2). Media was removed from cells and replaced with media containing Antp-AAC-11-LZ (363-399) peptide at various concentrations (100 μL total volume per well) peptide and the plates were incubated for 24 hours. The MTT assay was then completed and data analysis was performed as described herein. […] A549 cells were plated at a densities of 4.5×10^3 in 96 well plates (100 μL total volume per well) and allowed to attach overnight in a 37° C. incubator (5% CO2). Media was removed from cells and replaced with media containing the indicated peptides at 10 μM (100 μL total volume per well) and the plates were incubated for 24 hours. The MTT assay was then completed and data analysis was performed as described herein.
(A) A549 cells were plated at a densities of 4.5×10^3 in 96 well plates (100 μL total volume per well) and allowed to attach overnight in a 37° C. incubator (5% CO2). Media was removed from cells and replaced with media containing the indicated peptides at various concentrations (100 μL total volume per well) peptide in the absence of serum and the plates were incubated for 24 hours. The MTT assay was then completed and data analysis was performed as described herein. (B) A549 or HaCat cells were plated at a densities of 4.5×10^3 in 96 well plates (100 μL total volume per well) and allowed to attach overnight in a 37° C. incubator (5% CO2). Media was removed from cells and replaced with media containing the indicated peptides at 10 μM (100 μL total volume per well) peptide in the absence of serum and the plates were incubated for 24 hours. The MTT assay was then completed and data analysis was performed as described herein.
A549 cells were plated at a densities of 4.5×10^3 in 96 well plates (100 μL total volume per well) and allowed to attach overnight in a 37° C. incubator (5% CO2). Cells were left untreated or pre-treated with 100 μM Z-VAD-FMK for 2 h. […] The MTT assay was then completed and data analysis was performed as described herein.
(A) A549 cells were plated at a densities of 4.5×10^3 in 96 well plates (100 μL total volume per well) and allowed to attach overnight in a 37° C. incubator (5% CO2). Media was removed from cells and replaced with media containing the indicated Antp-AAC-11-LZ peptides at various concentrations (100 μL total volume per well) peptide and the plates were incubated for 24 hours. The MTT assay was then completed and data analysis was performed as described herein. (B) A549 or HaCat cells were plated at a densities of 4.5×10^3 in 96 well plates (100 μL total volume per well) and allowed to attach overnight in a 37° C. incubator (5% CO2). Media was removed from cells and replaced with media containing the indicated peptides at 10 μM (100 μL total volume per well) peptide in the absence of serum and the plates were incubated for 24 hours. The MTT assay was then completed and data analysis was performed as described herein.

[2] = system: human triple-negative breast cancer xenograft PDX02; assay: Triple-negative breast cancer patient-derived xenograft PDX02 in nude mice; format: in vivo; conditions: 2.4 mg/kg i.p., 7 daily injections, p=0.01
Description: (§1) Breast cancer fragments were obtained from patients at the time of surgery, with informed written patient consent. After imaging-guided human tumor biopsies had been performed, fragments of 30 to 60 mm^3 were subcutaneously grafted in 6-week-old NMRI-nude mice (Centre-Elevage-Janvier, France), under xylasin (10 mg/kg)/ketamin (100 mg/kg) anesthesia. Mice were maintained in specific pathogen-free animal housing (Institut Universitaire d'Hematologie) and received estrogen (17 mg/mL) diluted in drinking water. Xenografts were characterized and subsequently subcutaneously transplanted from mouse to mouse. […] Two human triple-negative breast cancer (HBC) xenografts models were used in our experiments (PDX01 and PDX02). […] Following transplantation (n=6 per model) tumor growth was assessed by measuring tumor size in two dimension using a Vernier caliper. Tumor volume was calculated using the formula [3.14×long axis×short axis×short axis]/6 (Kjonniksen et al., 1989). […] Mice were weighted and the tumor size was measured by a caliper and recorded daily. Fourteen days after beginning of the treatment mice were sacrificed. The tumors, kidney, lungs, heart, liver, pancreas and spleen were taken and fixed. Paraffin-embedded sections were prepared and stained with hematoxylin and eosin for histological analysis.

[3] = system: human triple-negative breast cancer xenograft PDX01; assay: Triple-negative breast cancer patient-derived xenograft PDX01 in nude mice; format: in vivo; conditions: 2.4 mg/kg i.p., 7 daily injections, p=0.01
Description: as §1

HaCat cells = assay: Cell viability (MTT) of nonmalignant HaCat cells in the absence of serum; format: cell-based; conditions: 10 μM, 24 hours, FIG. 2B / 5B
Description: FIG. 2: TAT-AAC-11-LZ (363-399), RI-TAT-AAC-11-LZ (363-399) and Cter-Antp-AAC-11-LZ (363-399) peptides preferentially kill tumor cells. (A) A549 cells were plated at a densities of 4.5×10^3 in 96 well plates (100 μL total volume per well) and allowed to attach overnight in a 37° C. incubator (5% CO2). Media was removed from cells and replaced with media containing the indicated peptides at various concentrations (100 μL total volume per well) peptide in the absence of serum and the plates were incubated for 24 hours. The MTT assay was then completed and data analysis was performed as described herein. (B) A549 or HaCat cells were plated at a densities of 4.5×10^3 in 96 well plates (100 μL total volume per well) and allowed to attach overnight in a 37° C. incubator (5% CO2). Media was removed from cells and replaced with media containing the indicated peptides at 10 μM (100 μL total volume per well) peptide in the absence of serum and the plates were incubated for 24 hours. […]
Viability of cells cultured in the 96-well culture plates was assessed by measuring mitochondrial dehydrogenase activity, using the colorimetric CellTiter 96® AQueous One Solution Cell Proliferation Assay (Promega), according to the manufacturer′ instructions. […] The color can then be quantified using a simple colorimetric assay. The results are read on a multiwall scanning spectrophotometer (ELISA reader).

D3H2LN cells = assay: Proliferation of D3H2LN cells (not showed); format: cell-based

CC1=C(/C=C/C(C)=C/C=C/C(C)=C/C(=O)O)C(C)(C)CCC1 [ATRA, all-trans retinoic acid, reference compound]
mice surviving up to 67 d ([1]; n=6 per treatment): one mouse | mean survival time ([1]; peptide 1.8 mg/kg i.p. daily for 7 days, ATRA 5 mg 21-d release pellet s.c., from day 10 after graft, n=6): 56 days

AAC-11-LZ (363-399): AKLNAEKLKDFKIRLQYFARGLQVYIRQLRLALQGKT (SEQ ID NO: 3) (Synthetic AAC-11-LZ (363-399))
induction of cell death of A549 cells (A549 cells): neither the Penetratin peptide alone, the AAC-11-LZ (363-399) peptide without the Penetratin linkage nor the mutant peptide Antp-AAC-11-LZ (363-399) L/G did induce cell death | final mean tumor volume relative to control-treated mice [2]: less than 50% | final mean tumor volume relative to control-treated mice [3]: less than 35%

Ac-RQIKIWFKKQNRRMKWKKFARGLQVYIRQLRLALQGKT-NH2 [Antp-AAC-11-LZ (380-399)]
cytotoxicity (decrease of A549 viability) relative to comparison peptide, dose-response (A549 cells): substantial but weaker cell death than the Antp-AAC-11-LZ (363-399) peptide

Ac-RQIKIWFKKQNRRMKWKKKDFKIRLQYFARGLQVYIRQL-NH2 [Antp-AAC-11-LZ (371-391)]
cytotoxicity (decrease of A549 viability) relative to comparison peptide, dose-response (A549 cells): reduced cytotoxicity compared with the Antp-AAC-11-LZ (371-399) peptide; also recorded: significantly higher cell death compared with the Antp-AAC-11-LZ (363-399) parent peptide

Ac-RQIKIWFKKQNRRMKWKKKDFKIRLQYFARGLQVYIRQLRLALQG-NH2 [Antp-AAC-11-LZ (371-397)]
cytotoxicity (decrease of A549 viability) relative to comparison peptide, dose-response (A549 cells): reduced cytotoxicity compared with the Antp-AAC-11-LZ (371-399) peptide; also recorded: significantly higher cell death compared with the Antp-AAC-11-LZ (363-399) parent peptide

Ac-RQIKIWFKKQNRRMKWKKKDFKIRLQYFARGLQVYIRQLRLALQGKT-NH2 [Antp-AAC-11-LZ (371-399)]
cellular viability (A549 cells): 33.2 % of control | cytotoxicity (decrease of A549 viability) relative to comparison peptide, dose-response (A549 cells): markedly increased cytotoxicity potency compared to the parent peptide

Ac-RQIKIWFKKQNRRMKWKKLQYFARGLLRLALQGKT-NH2 [Antp-AAC-11-LZ (377-399 4385-390)]
cellular viability (A549 cells): 3 % of control | cytotoxicity (decrease of A549 viability) relative to comparison peptide, dose-response (A549 cells): highest activity

Ac-YGRKKRRQRRRGGGAKLNAEKLKDFKIRLQYFARGLQVYIRQLRLALQGKT-NH2 [TAT-AAC-11-LZ (363-399)]
cytotoxicity in nonmalignant cells (HaCat cells): largely more resistant | proliferation at the concentrations used for migration (D3H2LN cells): neither the Antp-AAC-11-LZ (363-399) or TAT-AAC-11-LZ (363-399) peptides impaired proliferation | cytotoxicity (decrease of A549 viability) relative to comparison peptide, dose-response (A549 cells): at least as effective as compared to the Antp-AAC-11-LZ (363-399) peptide

Ac-[dR][dR][dR][dQ][dR][dR][dK][dK][dR]G[dY]G[dT][dK]G[dQ][dL][dA][dL][dR][dL][dQ][dR][dI][dY][dV][dQ][dL]G[dR][dA][dF][dY][dQ][dL][dR][dI][dK][dF][dD][dK][dL][dK][dE][dA][dN][dL][dK][dA]-NH2 [RI-TAT-AAC-11-LZ (363-399)]
cytotoxicity in nonmalignant cells (HaCat cells): very little cytotoxicity | cytotoxicity (decrease of A549 viability) relative to comparison peptide, dose-response (A549 cells): more effective than the TAT-AAC-11-LZ (363-399) peptide

Antp-AAC-11-LZ (363-399) L/G: RQIKIWFKKQNRRMKWKKAKLNAEKLKDFKIRGQYFARGGQVYIRQGRLALQGKT (SEQ ID NO: 5), leucines 377, 384 and 391 mutated to glycines (Ac-RQIKIWFKKQNRRMKWKKAKLNAEKLKDFKIRGQYFARGGQVYIRQGRLALQGKT-NH2)
induction of cell death of A549 cells (A549 cells): neither the Penetratin peptide alone, the AAC-11-LZ (363-399) peptide without the Penetratin linkage nor the mutant peptide Antp-AAC-11-LZ (363-399) L/G did induce cell death

From US10358469B2, “Methods and pharmaceutical compositions for the treatment of cancer” (INSERM (INSTITUT NATIONAL DE LA SANTÉ ET DE LA RECHERCHE …, priority 2014, dated 2019)
